Experimental data: ChEMBL document CHEMBL2375215, “Phenylpropiophenone derivatives as potential anticancer agents: synthesis, biological evaluation and quantitative structure-activity relationship study” (Eur J Med Chem, 2013); call rule not given here
pIC50: −log10 of the molar value.

Tests used:
PBMC [1] = assay: Cytotoxicity against human PBMC assessed as decrease in cell survival after 72 hrs by MTT assay; format: cell-based
[2] = Selectivity index, ratio of IC50 for human PBMC to IC50 for human Fem-X cells
HeLa [3] = assay: Selectivity index, ratio of IC50 for human PBMC to IC50 for human HeLa cells
K562 [4] = assay: Selectivity index, ratio of IC50 for human PBMC to IC50 for human K562 cells
PC-3 [5] = assay: Selectivity index, ratio of IC50 for human PBMC to IC50 for human PC3 cells
[6] = Selectivity index, ratio of IC50 for PHA-stimulated human PBMC to IC50 for human Fem-X cells; format: functional
MCF7 [7] = assay: Selectivity index, ratio of IC50 for human PBMC to IC50 for human MCF7 cells
K562 [8] = assay: Selectivity index, ratio of IC50 for PHA-stimulated human PBMC to IC50 for human K562 cells
HeLa [9] = assay: Cytotoxicity against human HeLa cells assessed as decrease in cell survival after 72 hrs by MTT assay; format: functional, cell-based; conditions: for pIC50: read-out: IC50; for IC50: read-out: pIC50 (converted)
Aorta = assay: Cytotoxicity against rat aorta at < 10 uM in presence of potassium channel and calcium channel blocker; format: tissue-based
[10] = (§1) Cytotoxicity against human Fem-X cells assessed as decrease in cell survival after 72 hrs by MTT assay; format: functional, cell-based; conditions: for pIC50: read-out: IC50; for IC50: read-out: pIC50 (converted)
Fem-X = assay: as §1; format: functional, cell-based
[11] = Selectivity index, ratio of IC50 for human PBMC to IC50 for human LS174 cells
PC-3 [12] = assay: Cytotoxicity against human PC3 cells assessed as decrease in cell survival after 72 hrs by MTT assay; format: functional, cell-based; conditions: for pIC50 / IC50: PC-3, 72 h; for pIC50: read-out: IC50; for IC50: read-out: pIC50 (converted)
PBMC [13] = assay: Cytotoxicity against PHA-stimulated human PBMC assessed as decrease in cell survival after 72 hrs by MTT assay; format: cell-based
MCF7 [14] = assay: Cytotoxicity against human MCF7 cells assessed as decrease in cell survival after 72 hrs by MTT assay; format: functional, cell-based; conditions: for pIC50 / IC50: MCF7, 72 h; for pIC50: read-out: IC50; for IC50: read-out: pIC50 (converted)
PC-3 [15] = assay: Selectivity index, ratio of IC50 for PHA-stimulated human PBMC to IC50 for human PC3 cells
MCF7 [16] = assay: Selectivity index, ratio of IC50 for PHA-stimulated human PBMC to IC50 for human MCF7 cells
[17] = Selectivity index, ratio of IC50 for PHA-stimulated human PBMC to IC50 for human LS174 cells
HeLa [18] = assay: Selectivity index, ratio of IC50 for PHA-stimulated human PBMC to IC50 for human HeLa cells
K562 [19] = assay: Cytotoxicity against human K562 cells assessed as decrease in cell survival after 72 hrs by MTT assay; format: functional, cell-based; conditions: for pIC50 / IC50: K562, 72 h; for pIC50: read-out: IC50; for IC50: read-out: pIC50 (converted)
[20] = (§2) Cytotoxicity against human LS174 cells assessed as decrease in cell survival after 72 hrs by MTT assay; format: functional, cell-based; conditions: LS174, 72 h; for pIC50: read-out: IC50; for IC50: read-out: pIC50 (converted)
LS174 = assay: as §2; format: functional, cell-based

SMILES	pIC50 (PBMC [1])	Ratio IC50 [2]	Ratio IC50 (HeLa [3])	Ratio IC50 (K562 [4])	Ratio IC50 (PC-3 [5])	Ratio IC50 [6]	Ratio IC50 (MCF7 [7])	Ratio IC50 (K562 [8])	Activity (HeLa [9])	pIC50 (HeLa [9])	IC50 (HeLa [9]) [µM]	pIC50 [10]	IC50 [10] [µM]	Activity (Fem-X)	Ratio IC50 [11]	Activity (PC-3 [12])	pIC50 (PC-3 [12])	IC50 (PC-3 [12]) [µM]	pIC50 (PBMC [13])	Activity (MCF7 [14])	also measured
CCCNCC(O)COc1ccccc1C(=O)CCc1ccccc1Cl.Cl (racemic)	4.23	12.14	19.83	9.91	4.72	10.8	2.95	8.82	Dose-dependent effect	5.52	3	5.31	4.9	Dose-dependent effect	5.31	Dose-dependent effect	4.90	12.6	4.28	Dose-dependent effect	Activity (Aorta): Not Active; pIC50 (MCF7 [14]): 4.69; IC50 (MCF7 [14]): 20.2 µM; Ratio IC50 (PC-3 [15]): 4.2; Ratio IC50 (MCF7 [16]): 2.62; Ratio IC50 [17]: 4.72; Ratio IC50 (HeLa [18]): 17.63; Activity (K562 [19]): Dose-dependent effect; pIC50 (K562 [19]): 5.22; IC50 (K562 [19]): 6 µM; pIC50 [20]: 4.95; IC50 [20]: 11.2 µM; Activity (LS174): Dose-dependent effect
O=C(/C=C/c1ccccc1C(F)(F)F)c1ccccc1O	4.38	4.1	2.31	4.55	1.25	3.42	2.48	3.79	Dose-dependent effect	4.74	18.1	4.99	10.2	Dose-dependent effect	1.59	Dose-dependent effect	4.47	33.5	4.60	Dose-dependent effect	pIC50 (MCF7 [14]): 4.77; IC50 (MCF7 [14]): 16.9 µM; Ratio IC50 (PC-3 [15]): 1.04; Ratio IC50 (MCF7 [16]): 2.07; Ratio IC50 [17]: 1.32; Ratio IC50 (HeLa [18]): 1.92; Activity (K562 [19]): Dose-dependent effect; pIC50 (K562 [19]): 5.04; IC50 (K562 [19]): 9.2 µM; pIC50 [20]: 4.58; IC50 [20]: 26.4 µM; Activity (LS174): Dose-dependent effect
CCCNCC(O)COc1ccccc1C(=O)CCc1ccccc1C.Cl (racemic)	4.28	7.71	5.89	6.47	2.91	7.32	2.24	6.15	Dose-dependent effect	5.05	8.9	5.17	6.8	Dose-dependent effect	2.58	Dose-dependent effect	4.74	18	4.30	Dose-dependent effect	pIC50 (MCF7 [14]): 4.63; IC50 (MCF7 [14]): 23.4 µM; Ratio IC50 (PC-3 [15]): 2.77; Ratio IC50 (MCF7 [16]): 2.13; Ratio IC50 [17]: 2.45; Ratio IC50 (HeLa [18]): 5.6; Activity (K562 [19]): Dose-dependent effect; pIC50 (K562 [19]): 5.09; IC50 (K562 [19]): 8.1 µM; pIC50 [20]: 4.69; IC50 [20]: 20.3 µM; Activity (LS174): Dose-dependent effect
O=C(/C=C/c1ccccc1F)c1ccccc1O	4.75	2.02	1.98	3.67	0.81	1.88	1.22	3.41	Dose-dependent effect	5.05	8.9	5.06	8.7	Dose-dependent effect	1.01	Dose-dependent effect	4.67	21.6	4.79	Dose-dependent effect	pIC50 (MCF7 [14]): 4.84; IC50 (MCF7 [14]): 14.4 µM; Ratio IC50 (PC-3 [15]): 0.76; Ratio IC50 (MCF7 [16]): 1.14; Ratio IC50 [17]: 0.94; Ratio IC50 (HeLa [18]): 1.84; Activity (K562 [19]): Dose-dependent effect; pIC50 (K562 [19]): 5.32; IC50 (K562 [19]): 4.8 µM; pIC50 [20]: 4.76; IC50 [20]: 17.4 µM; Activity (LS174): Dose-dependent effect
CCCNCC(O)COc1ccccc1C(=O)CCc1ccc(C)cc1.Cl (racemic)	4.31	3.83	2.24	3.31	1.97	3.26	1.54	2.82	Dose-dependent effect	4.66	21.7	4.90	12.7	Dose-dependent effect	2.34	Dose-dependent effect	4.61	24.7	4.38	Dose-dependent effect	pIC50 (MCF7 [14]): 4.50; IC50 (MCF7 [14]): 31.7 µM; Ratio IC50 (PC-3 [15]): 1.68; Ratio IC50 (MCF7 [16]): 1.31; Ratio IC50 [17]: 1.99; Ratio IC50 (HeLa [18]): 1.91; Activity (K562 [19]): Dose-dependent effect; pIC50 (K562 [19]): 4.83; IC50 (K562 [19]): 14.7 µM; pIC50 [20]: 4.68; IC50 [20]: 20.8 µM; Activity (LS174): Dose-dependent effect
